Among the data in patent publication US11999739B2, “Antimicrobials methods of making and using the same” (BIOVERSYS AG, priority 2016, dated 2024) are MIC values, retold here.

The subject of experiment [1] is Staphylococcus aureus (S. aureus) 11540 strain. Put plainly: Standard microdilution MIC assay, S. aureus. The class given is cell-based. An outline of the steps:
(§1)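 MICs obtained by CLSI-standard microdilution, quality-controlled with reference strains in parallel. Values reported as + or − relative to a 16 micrograms/mL cutoff.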
On the technique in general: Dilution methods test growth across graded concentrations, often in twofold steps.

Experiment [2] relates to Escherichia coli strain ATCC25922. Put plainly: Standard microdilution MIC assay, E. coli. Type of experiment: cell-based. An outline of the steps:
as §1

For the compound `CC(=N)NCC[C@@H]1CCC[C@@H](c2ccc(-n3cc4cc(-c5cc(CCC[C@H](C)N)cc(C(F)(F)F)c5)[nH]c4nc3=O)cc2)N1` [Compound 172], the minimum inhibitory concentration (MIC) in experiment [1] and in experiment [2] was ≤ 16 µg/mL throughout.

Consider `C=C[C@H](N)CCCc1cc(Cl)c(F)c(-c2cc3cn(-c4ccc([C@@H]5CCC[C@@H](CCNC(C)=N)N5)c(F)c4)c(=O)nc3[nH]2)c1` [Compound 173], for which the minimal inhibitory concentration (MIC) in experiment [1] and in experiment [2] was ≤ 16 µg/mL each time.

Consider `C=C[C@H](N)CCCc1cc(Cl)c(F)c(-c2cc3cn(-c4ccc([C@H](C)N[C@@H](CO)CCNC(C)=N)c(F)c4)c(=O)nc3[nH]2)c1` [Compound 174], for which the MIC in experiment [1] and in experiment [2] was ≤ 16 µg/mL each time.

As for `CC(=N)NCC[C@@H]1CCC[C@@H](c2ccc(-n3cc4cc(-c5cc(CCC[C@H](C)N)cc(Cl)c5F)[nH]c4nc3=O)cc2Cl)N1` [Compound 175], the MIC in experiment [1] and in experiment [2] was ≤ 16 µg/mL throughout.

Consider `CC(=N)NCC[C@@H]1CCC[C@@H](c2ccc(-n3cc4cc(-c5cc(CCC[C@@H](N)CF)cc(Cl)c5F)[nH]c4nc3=O)cc2Cl)N1` [Compound 176], for which the minimum inhibitory concentration (MIC) in experiment [1] and in experiment [2] was ≤ 16 µg/mL throughout.

For `CC(=N)NCC[C@H](CO)N[C@@H](C)c1ccc(-n2cc3cc(-c4cc(CCC[C@H](C)N)cc(Cl)c4F)[nH]c3nc2=O)cc1F` [Compound 177], the MIC in experiment [1] and in experiment [2] was ≤ 16 µg/mL in each case.

On to `CC(=N)NCC[C@H](CO)N[C@@H](C)c1ccc(-n2cc3cc(-c4cc(CCC[C@@H](N)CF)cc(Cl)c4F)[nH]c3nc2=O)cc1F` [Compound 178], for which the minimal inhibitory concentration (MIC) in experiment [1] and in experiment [2] was ≤ 16 µg/mL in each case.

For `C=C[C@H](NCCCNC(C)=N)c1ccc(-n2cc3cc(-c4cc(CCC[C@@H](N)CF)cc(Cl)c4F)[nH]c3nc2=O)cc1` [Compound 179], the MIC in experiment [1] and in experiment [2] was ≤ 16 µg/mL throughout.

For `C=CCN(CC[C@@H]1CCC[C@@H](c2ccc(-n3cc4cc(-c5cc(CCC[C@H](C)N)cc(Cl)c5F)[nH]c4nc3=O)cc2)N1C)C(C)=N` [Compound 180], the MIC in experiment [1] and in experiment [2] was ≤ 16 µg/mL in each case.

For `C=CCN(CC[C@@H]1CCC[C@@H](c2ccc(-n3cc4cc(-c5cc(CCC[C@@H](N)CF)cc(Cl)c5F)[nH]c4nc3=O)cc2)N1C)C(C)=N` [Compound 181], the MIC in experiment [1] and in experiment [2] was ≤ 16 µg/mL each time.

In the case of `C=C[C@@H](CCNC(C)=N)N[C@@H](C)c1ccc(-n2cc3cc(-c4cc(CCC[C@H](C)N)cc(Cl)c4F)[nH]c3nc2=O)cc1F` [Compound 183], the MIC in experiment [1] and in experiment [2] was ≤ 16 µg/mL throughout.

Regarding `C=C[C@H](N)CCCc1cc(Cl)c(F)c(-c2cc3cn(-c4ccc([C@H](C)N[C@@H](C=C)CCNC(C)=N)c(F)c4)c(=O)nc3[nH]2)c1` [Compound 184], the MIC in experiment [1] and in experiment [2] was ≤ 16 µg/mL in each case.

Take `C=C[C@H](N)CCCc1cc(Cl)c(F)c(-c2cc3cn(-c4ccc([C@@H]5CCC[C@@H](CCNC(=N)C(Cl)(Cl)Cl)N5)c(F)c4)c(=O)nc3[nH]2)c1` [Compound 185]: the MIC in experiment [1] and in experiment [2] was ≤ 16 µg/mL each time.

For the compound `C=C[C@@H](CCNC(C)=N)N[C@@H](C)c1ccc(-n2cc3cc(-c4cc(CCC[C@@H](N)CF)cc(Cl)c4F)[nH]c3nc2=O)cc1F` [Compound 186], the minimum inhibitory concentration (MIC) in experiment [1] and in experiment [2] was ≤ 16 µg/mL throughout.

`C=C[C@@H](CCNC(C)=N)NCc1ccc(-n2cc3cc(-c4cc(CCC[C@@H](N)COC)cc(Cl)c4F)[nH]c3nc2=O)cc1` [Compound 187]: the MIC in experiment [1] and in experiment [2] was ≤ 16 µg/mL throughout.

For `COC[C@@H](CCNC(C)=N)NCc1ccc(-n2cc3cc(-c4cc(CCC[C@@H](N)CF)cc(Cl)c4F)[nH]c3nc2=O)cc1` [Compound 188], the MIC in experiment [1] and in experiment [2] was ≤ 16 µg/mL in each case.

In the case of `COC[C@@H](CCNC(C)=N)NCc1ccc(-n2cc3cc(-c4cc(CCC[C@H](C)N)cc(Cl)c4F)[nH]c3nc2=O)cc1` [Compound 189], the minimum inhibitory concentration (MIC) in experiment [1] and in experiment [2] was ≤ 16 µg/mL in each case.

For the compound `CC(=N)NCC[C@@H]1CCC[C@@H](c2ccc(-n3cc4cc(-c5cc(CCC[C@H](C)N)cc(Cl)c5F)[nH]c4nc3=O)cn2)N1` [Compound 192], the minimal inhibitory concentration (MIC) in experiment [1] and in experiment [2] was ≤ 16 µg/mL each time.

`CC(=N)NCC[C@@H]1CCC[C@@H](c2ccc(-n3cc4cc(-c5cc(CCC[C@@H](N)CF)cc(C(F)(F)F)c5F)[nH]c4nc3=O)cc2)N1` [Compound 193]: the MIC in experiment [1] and in experiment [2] was ≤ 16 µg/mL throughout.

For `COC[C@H](N)CCCc1cc(-c2cc3cn(-c4ccc([C@@H]5CCC[C@@H](CCNC(C)=N)N5)c(OC)c4)c(=O)nc3[nH]2)c(F)c(C(F)(F)F)c1` [Compound 194], the minimum inhibitory concentration (MIC) in experiment [1] and in experiment [2] was ≤ 16 µg/mL in each case.

As to `COC[C@H](N)CCCc1cc(OC(F)(F)F)c(F)c(-c2cc3cn(-c4ccc([C@@H]5CCC[C@@H](CCNC(C)=N)N5)cc4)c(=O)nc3[nH]2)c1` [Compound 195], the MIC in experiment [1] and in experiment [2] was ≤ 16 µg/mL throughout.

`COC[C@H](N)CCCc1cc(OC(F)(F)F)c(F)c(-c2cc3cn(-c4ccc([C@@H]5CCC[C@@H](CCNC(C)=N)N5)c(OC)c4)c(=O)nc3[nH]2)c1` [Compound 197]: the MIC in experiment [1] and in experiment [2] was ≤ 16 µg/mL in each case.

For `COC[C@H](N)CCCc1cc(OC(F)(F)F)c(F)c(-c2cc3cn(-c4ccc([C@@H]5CCC[C@@H](CCNC(C)=N)N5)c(SC)c4)c(=O)nc3[nH]2)c1` [Compound 198], the MIC in experiment [1] and in experiment [2] was ≤ 16 µg/mL in each case.

As to `COC[C@H](N)CCCc1cc(-c2cc3cn(-c4ccc([C@@H]5CCC[C@@H](CCNC(C)=N)N5)c(F)c4)c(=O)nc3[nH]2)cc(C(F)(F)F)c1` [Compound 201], the minimal inhibitory concentration (MIC) in experiment [1] and in experiment [2] was ≤ 16 µg/mL in each case.

Consider `COC[C@H](N)CCCc1cc(-c2cc3cn(-c4ccc([C@@H]5CCC[C@@H](CCNC(C)=N)N5)c(SC)c4)c(=O)nc3[nH]2)cc(C(F)(F)F)c1` [Compound 202], for which the MIC in experiment [1] and in experiment [2] was ≤ 16 µg/mL in each case.

As to `CSc1cc(-n2cc3cc(-c4cc(CCC[C@@H](N)CF)cc(C(F)(F)F)c4)[nH]c3nc2=O)ccc1[C@@H]1CCC[C@@H](CCNC(C)=N)N1` [Compound 203], the MIC in experiment [1] and in experiment [2] was ≤ 16 µg/mL throughout.

Turning to `CC(=N)NCC[C@@H]1CCC[C@@H](c2ccc(-n3cc4cc(-c5cc(CCC[C@@H](N)CF)cc(C(F)(F)F)c5)[nH]c4nc3=O)cc2)N1` [Compound 204], the minimum inhibitory concentration (MIC) in experiment [1] and in experiment [2] was ≤ 16 µg/mL each time.

Consider `CC(=N)NCC[C@@H]1CCC[C@@H](c2ccc(-n3cc4cc(-c5cc(CCC[C@@H](N)CF)cc(C(F)(F)F)c5)[nH]c4nc3=O)cc2F)N1` [Compound 205], for which the minimal inhibitory concentration (MIC) in experiment [1] and in experiment [2] was ≤ 16 µg/mL in each case.

Turning to `CC(=N)NCC[C@@H]1CCC[C@@H](c2ccc(-n3cc4cc(-c5cc(CCC[C@@H](N)C6CC6)cc(C(F)(F)F)c5)[nH]c4nc3=O)cc2)N1` [Compound 206], the minimum inhibitory concentration (MIC) in experiment [1] and in experiment [2] was ≤ 16 µg/mL each time.

`CC(=N)NCC[C@@H]1CCC[C@@H](c2ccc(-n3cc4cc(-c5cc(CCC[C@@H](N)C6CC6)cc(OC(F)(F)F)c5F)[nH]c4nc3=O)cc2)N1` [Compound 207]: the MIC in experiment [1] and in experiment [2] was ≤ 16 µg/mL in each case.

As for `CC(=N)NCC[C@@H]1CCC[C@@H](c2ccc(-n3cc4cc(-c5cc(CCC[C@@H](N)C6CC6)cc(OC(F)(F)F)c5F)[nH]c4nc3=O)cc2F)N1` [Compound 208], the MIC in experiment [1] and in experiment [2] was ≤ 16 µg/mL in each case.

`COc1cc(-n2cc3cc(-c4cc(CCC[C@@H](N)CF)cc(C(F)(F)F)c4)[nH]c3nc2=O)ccc1[C@@H]1CCC[C@@H](CCNC(C)=N)N1` [Compound 209]: the minimum inhibitory concentration (MIC) in experiment [1] and in experiment [2] was ≤ 16 µg/mL in each case.

Consider `COC[C@H](N)CCCc1cc(-c2cc3cn(-c4ccc([C@@H]5CCC[C@@H](CCNC(C)=N)N5)c(OC)c4)c(=O)nc3[nH]2)cc(C(F)(F)F)c1` [Compound 210], for which the minimum inhibitory concentration (MIC) in experiment [1] and in experiment [2] was ≤ 16 µg/mL each time.

Take `CC(=N)NCC[C@@H]1CCC[C@@H](c2ccc(-n3cc4cc(-c5cc(CCC[C@@H](N)C6CC6)cc(C(F)(F)F)c5)[nH]c4nc3=O)cc2F)N1` [Compound 211]: the minimal inhibitory concentration (MIC) in experiment [1] and in experiment [2] was ≤ 16 µg/mL throughout.

Turning to `CC(=N)NCC[C@@H]1CCC[C@@H](c2ccc(-n3cc4cc(-c5cc(CCC[C@@H](N)C6CC6)cc(C(F)(F)F)c5F)[nH]c4nc3=O)cc2)N1` [Compound 212], the MIC in experiment [1] and in experiment [2] was ≤ 16 µg/mL each time.

With `CC(=N)NCC[C@@H]1CCC[C@@H](c2ccc(-n3cc4cc(-c5cc(CCC[C@@H](N)C6CC6)cc(OC(F)(F)F)c5F)[nH]c4nc3=O)cc2OC(F)(F)F)N1` [Compound 213], the MIC in experiment [1] and in experiment [2] was ≤ 16 µg/mL each time.

With `COC[C@H](N)CCCc1cc(-c2cc3cn(-c4ccc([C@@H]5CCC[C@@H](CCNC(C)=N)N5)c(OC(F)(F)F)c4)c(=O)nc3[nH]2)cc(C(F)(F)F)c1` [Compound 214], the MIC in experiment [1] and in experiment [2] was ≤ 16 µg/mL each time.

On to `CC(=N)NCC[C@@H]1CCC[C@@H](c2ccc(-n3cc4cc(-c5cc(CCC[C@@H](N)CF)cc(C(F)(F)F)c5)[nH]c4nc3=O)cc2OC(F)(F)F)N1` [Compound 215], for which the minimum inhibitory concentration (MIC) in experiment [1] and in experiment [2] was ≤ 16 µg/mL each time.

In the case of `COC[C@H](N)CCCc1cc(-c2cc3cn(-c4ccc([C@@H]5CCC[C@@H](CCNC(C)=N)N5)c(OC(F)(F)F)c4)c(=O)nc3[nH]2)c(F)c(C(F)(F)F)c1` [Compound 216], the MIC in experiment [1] and in experiment [2] was ≤ 16 µg/mL each time.

Consider `CC(=N)NCC[C@@H]1CCC[C@@H](c2ccc(-n3cc4cc(-c5cc(CCC[C@@H](N)C6CC6)cc(C(F)(F)F)c5)[nH]c4nc3=O)cc2OC(F)(F)F)N1` [Compound 217], for which the MIC in experiment [1] and in experiment [2] was ≤ 16 µg/mL throughout.

As to `CC(=N)NCC[C@@H](NCc1ccc(-n2cc3cc(-c4cc(CCC[C@@H](N)CF)cc(Cl)c4F)[nH]c3nc2=O)cc1)C1CC1` [Compound 218], the MIC in experiment [1] and in experiment [2] was ≤ 16 µg/mL in each case.
